Measurements taken from ChEMBL document CHEMBL1143540, “Synthesis and in vivo antihyperglycemic activity of 5-(1H-pyrazol-3-yl)methyl-1H-tetrazoles” (2005).

Tested on: Rattus norvegicus
Test: Percent fall in blood glucose level in male Sprague-Dawley rats when at 100 mg/kg dose was calculated by AUC method
Format: functional

| SMILES | Activity |
| --- | --- |
| Clc1ccc(-c2cc(Cc3nnn[nH]3)[nH]n2)cc1 | 10.8% |
| CN(CCOc1ccc(-c2cc(Cc3nnn[nH]3)[nH]n2)cc1)Cc1ccccc1 | 18% |
| CSCCOc1ccc(-c2cc(Cc3nnn[nH]3)[nH]n2)cc1 | 24.6% |
| Brc1ccc(-c2cc(Cc3nnn[nH]3)[nH]n2)cc1 | 18% |
| c1ccc2oc(-c3cc(Cc4nnn[nH]4)n[nH]3)cc2c1 | 6.2% |
| c1csc(-c2cc(Cc3nnn[nH]3)n[nH]2)c1 | 21.4% |
| CSc1ccc(-c2cc(Cc3nnn[nH]3)[nH]n2)cc1 | 6.06% |
| c1ccc(-c2cc(Cc3nnn[nH]3)n[nH]2)cc1 | 10.6% |
| CN(C)C(=N)NC(=N)N [METFORMIN] | 12.9% |
